Experiments:
A-549 cells = assay: Apoptosis assessment, Annexin V-FITC/propidium iodide double staining; format: cell-based, human
Experimental: Initially, we investigated morphological cellular changes. […] PARP, a hallmark of apoptosis, was also activated by 9a.
Apoptosis was detected by Annexin V-FITC/propidium iodide double staining kit (BD Biosciences). A-549 cells were treated with 9a for 24 h or 48 h. Cells were harvested by trypsinization and washed with ice-cold PBS. Cells were labeled with annexin V-FITC and propidium iodide for 15 min at room temperature in the dark. Labeled cells were analyzed by FACSCalibur flow cytometer (Becton Dickinson).

[1] = test system: human colorectal adenocarcinoma HCT116 xenograft; assay: Xenograft model antitumor assay; format: in vivo, nu/nu mice; settings: for mice showing complete regression: i.v. 7 days then i.p., n=8, 31-day study
Experimental: Xenograft model antitumor assay using human colorectal adenocarcinoma cell line HCT116 was performed according to the regimen in Table 2. The 31-day study utilized four groups of mice (n=8) bearing established HCT116 xenograft with mean volumes of approximately 200 mm^3 on day one. The tumor growth and animal body weight change for each treatment group were measured three times per week (FIGS. 2 and 3). Compound 9a was administered intravenously (i.v.) for 7 days and then intraperitoneally (i.p.) at 5 and 10 mg/kg once every day (QD) to the end.
Five- to six-week-old female nu/nu mice (National Laboratory Animal Center, Taiwan) were inoculated subcutaneously with 2×10^6 human colorectal adenocarcinoma HCT116 cells in flank. When the grafted tumor volume reached the average volume of 200 mm^3, mice were randomly divided into four groups (n=8). Vehicle control and compound 9a at 5 or 10 mg/kg were administered i.v. once a day (QD) for 7 days and then i.p. once a day to the end. As an experimental control group, 100 mg/kg of compound 3 was administered i.v. once a week (QWK) to the end. The length (L) and width (W) of graft was measured every 3 to 4 days to the end, and the tumor volume was calculated as LW^2/2. Results were evaluated statistically by Student's t-test. This study was approved by the Institutional Animal Care and Use Committee (IACUC) of the National Taiwan University (Taipei, Taiwan), and was performed according to the institutional guidelines.

[2] = test system: DU-145 (hormone-insensitive prostate cancer); assay: Sulforhodamine B cytotoxicity assay, DU-145; format: cell-based, human; settings: Table 1; 72 h; average ± SD
Experimental: The 12 novel 1-derivatives 9a-l were evaluated for in vitro antiproliferative activity against four human tumor cell lines, KB (nasopharyngeal), A-549 (lung), DU-145 (prostate), and KBvin (MDR KB subline), by using a sulforhodamine B colorimetric assay with triplicate experiments.^30 Compounds 1 and 3 were used as controls.
The human tumor cell lines used in this manuscript were A-549 (lung carcinoma), MDA-MB-231 (triple-negative breast cancer), DU-145 (hormone-insensitive prostate cancer), KB (originally isolated from epidermoid carcinoma of the nasopharynx), KBvin (vincristine-resistant KB subline), and HCT116 (colorectal adenocarcinoma). These cell lines were obtained from the Lineberger Comprehensive Cancer Center (UNC-CH) or from ATCC (Manassas, Va.), except KBvin, which was a generous gift of Professor Y.-C. Cheng (Yale University). All cell lines were maintained and assayed in RPMI-1640 medium containing 2 mM L-glutamine and 25 mM HEPES (HyClone), supplemented with 10% heat-inactivated fetal bovine serum (HyClone), 100 μg/mL streptomycin, 100 IU/mL penicillin, and 0.25 μg/mL amphotericin B (Cellgro) in a humidified atmosphere containing 5% CO2 in air. Compound stock solutions were prepared at 10 mM in DMSO and diluted with culture medium with the final DMSO concentration ≦0.01% (v/v), a concentration without effect on cell growth. The 4-6×10^3 cells/well were cultured for 72 h with various concentrations of test compounds in 96-well plate at 37° C. […] Each assay was performed in triplicate with duplicated samples.

[3] = target: T1, recombinant human Topoisomerase I (Homo sapiens, UniProt P11387); assay: Topoisomerase I activity assay in a cell-free system; format: biochemical; settings: purified recombinant human Topo I
T1 construct: purchased TopoGEN
T1 sequence (P11387 1-765): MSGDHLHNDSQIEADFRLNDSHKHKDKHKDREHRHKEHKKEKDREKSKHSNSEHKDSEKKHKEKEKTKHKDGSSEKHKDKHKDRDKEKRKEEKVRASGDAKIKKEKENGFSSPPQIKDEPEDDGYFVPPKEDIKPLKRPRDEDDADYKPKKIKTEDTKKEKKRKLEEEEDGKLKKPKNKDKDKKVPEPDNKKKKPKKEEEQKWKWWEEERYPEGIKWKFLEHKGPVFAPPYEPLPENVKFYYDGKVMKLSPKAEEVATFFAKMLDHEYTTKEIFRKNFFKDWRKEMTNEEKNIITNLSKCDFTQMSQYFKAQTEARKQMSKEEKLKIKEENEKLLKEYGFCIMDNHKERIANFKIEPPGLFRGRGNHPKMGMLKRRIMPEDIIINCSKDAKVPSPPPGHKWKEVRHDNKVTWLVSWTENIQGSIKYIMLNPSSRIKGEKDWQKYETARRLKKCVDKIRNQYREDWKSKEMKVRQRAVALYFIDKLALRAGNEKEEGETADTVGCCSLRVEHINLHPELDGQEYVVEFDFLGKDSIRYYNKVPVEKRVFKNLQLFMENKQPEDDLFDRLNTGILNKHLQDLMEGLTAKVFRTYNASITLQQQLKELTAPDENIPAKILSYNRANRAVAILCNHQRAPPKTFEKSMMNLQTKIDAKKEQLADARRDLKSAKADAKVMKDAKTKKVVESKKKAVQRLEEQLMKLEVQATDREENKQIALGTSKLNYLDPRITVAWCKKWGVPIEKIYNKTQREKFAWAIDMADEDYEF
Experimental: Inhibition of Topo I activity by 9a in a cell-free system. A 1-delivative with an esterified 20-hydroxy group is expected to be activated by digestion with carboxylesterases. […] We authenticated the inhibitory effect of 9a against Topo I in a dose-dependent manner Thus, we confirmed that 9a is a new class of Topo I inhibitor.
One unit of recombinant human Topoisomerase I enzyme (TopoGEN) was pre-incubated for 20 min at 37° C. with vehicle, 9a, 1, 3, or SN-38 in a final volume of 20 μL reaction buffer (10 mM Tris-HCl, pH 7.9, 1 mM EDTA, 150 mM NaCl, 0.1% BSA, 0.1 mM spermidine, 5% glycerol) was then incubated with 250 ng of supercoiled plasmid DNA for 20 min. The supercoiled, relaxed, or nicked DNA was separated by 1% agarose gel in 1×TAE (Tris-Acetate-EDTA) buffer. Ethidium bromide stained agarose gel was photographed using Gel Doc XR (Bio-Rad).

## CC[C@@]1(OC(=O)CNC(Cc2ccc(OC)cc2)=NS(=O)(=O)c2ccc(C)cc2)C(=O)OCc2c1cc1n(c2=O)Cc2cc3ccccc3nc2-1 [Compound 9a]
A-549 cells; A-549, 24 h, vehicle […]
  annexin V positive cell population: 3.7%
A-549 cells; A-549, 48 h, vehicle 2.0%
  annexin V positive cell population: 34.1%
[1]; 5 mg/kg QD
  mice showing complete regression: Two of eight
[1]; 5 mg/kg QD, P<0.01, Student's t-test
  antitumor activity in vivo (tumor growth): significant antitumor activity
[1]; 10 mg/kg QD
  mice showing complete regression: three of eight
[1]; 10 mg/kg QD, P<0.001, Student's t-test
  antitumor activity in vivo (tumor growth): significant antitumor activity
[1]; 5 and 10 mg/kg QD, xenograft mice
  animal body weight change: no significant changes in body weight
[2]
  IC50: 50 ± 3.8 nM
[3]
  Inhibition of Topo I activity (relaxation/nicking of supercoiled plasmid DNA): inhibited Topo I activity

Source: patent US9718835B2 (China Medical University Hospital, priority 2013, dated 2017)
